# Test results: patent US8680052B1, “Methods of treating, reducing the incidence of, and/or preventing ischemic events” (The Medicines Company, priority 2013, dated 2014)
# Assays:
# platelet function = conditions: in vivo; cited from earlier work
# [1] = in vivo; cited from earlier work
# platelets = experiment: Example 4: light transmission aggregometry (LTA) induced by 5 and 20 μM ADP; assay type: in vivo, human
# Method: The study involved 12 patients who met the criteria of being 18-75 years of age, having coronary artery disease (CAD) documented by a previous MI or coronary revascularization, and taking 81 mg of aspirin daily. […] Prohibited concomitant medications included strong and potent CYP3A inhibitors, simvastatin and lovastatin at doses more than 40 mg/day, omeprazole or esomeprazole, and digoxin. Use of non-steroidal anti-inflammatory agents was discouraged during study participation but not prohibited.
# Each patient was administered a 30 μg/kg bolus of cangrelor followed immediately by a 2 hr infusion at a rate of 4.0 μg/kg/min. A loading dose of ticagrelor (180 mg) was given after 0.5 hr or 1.25 hr (n=6 for each). Blood for pharmacodynamic platelet function studies was taken after 0.5 or 1.25 hr (corresponding to the time of ticagrelor load, n=6 for each), and then at 1.75, 2, 2.25, 2.5, 2.75, 3, 4, and 5.25 hr. Patients were assigned randomly to receive either 6 (n=6) or 7 (n=6) doses of ticagrelor to be taken every 12 hours following the discontinuation of the infusion of cangrelor. On study day 5, each patient was administered a 30 μg/kg bolus of cangrelor followed immediately by a 2 hr infusion at a rate of 4.0 μg/kg/min. Blood for pharmacodynamic assessment was taken after 1 and 2 hr. Adverse events were queried throughout study participation that ended with a telephone interview performed on study day 10-12.
# Pharmacodynamic assessment included light transmission aggregometry (LTA), VerifyNow® P2Y12 assay, vasodilator-stimulated phosphoprotein (VASP) index, and platelet activation measured with the use of flow cytometry. Assessment of LTA, VerifyNow®, and platelet activation with the use of flow cytometry was performed within 30 min of blood being taken. In the case of flow cytometry, samples were processed to fixation and then batched for analysis. For VASP, index samples were batched and processed as recommended by the vendor within 2 h of blood being taken. This approach limited the time from fixation of VASP index to flow analysis to less than 1 h.
# LTA induced by 5 μM and 20 μM adenosine diphosphate (ADP) was quantified ex vivo (i.e. in non-adjusted platelet rich plasma). Platelet-poor plasma was set as 100% aggregation, and both maximal (peak) and terminal (at 300 s) aggregation were measured with a PAP4 aggregometer (BioData, Horsham, Pa.). VerifyNow® P2Y12 assay (Accumetrics Inc, San Diego, Calif.) that measures the effects of drugs on the P2Y12 receptor by activating platelets with prostaglandin El in addition to ADP was used in accordance with the instructions provided by the manufacturer. Platelet reactivity was expressed in P2Y12 reaction units (PRU). Activation of platelets was identified with the use of flow cytometry as previously described.^17. And to determine the VASP index, a commercially available kit (Diagnostica Stago, Inc, Parsippany NJ) was used. ^17 Schneider D J, Sobel B E. Streamlining the design of promising clinical trials: in-vitro testing of antithrombotic regimens and multiple agonists of platelet activation. Coron Artery Dis. 2009; 20:175-8.
# [2] = system: patients undergoing percutaneous coronary intervention (PCI); experiment: Example 1: bleeding and adverse events through 48 hours;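 further: bleeding events compared through 48 h in the safety population, meaning patients given at least one study drug dose and grouped by treatment actually received, two-tailed tests at 0.05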
# Method: The primary efficacy endpoint was the composite of mortality, myocardial infarction, or ischemia-driven revascularization at 48 hours. The primary analysis was performed on a modified intent-to-treat population. Confirmatory analyses were performed on an intent-to-treat population. Secondary endpoints included the individual rates of mortality, myocardial infarction, new Q-wave myocardial infarction, ischemia-driven revascularization, abrupt vessel closure, or stroke at 48 hours. Mortality at 30 days and 1 year was also recorded. The clinical events committee adjudicated myocardial infarction, Q-wave myocardial infarction, ischemia-driven revascularization, stent thromboses, and stroke (ischemic or hemorrhagic). The definition of stent thrombosis was similar to the Academic Research Consortium definition of definite stent thrombosis. After review of the prespecified analyses, two exploratory endpoints less reliant on periprocedural biomarker ascertainment were examined. The exploratory endpoints, which were composed of prespecified and adjudicated endpoints, were the composite of mortality, Q-wave myocardial infarction, or ischemia-driven revascularization and the composite of mortality, Q-wave myocardial infarction, or stent thrombosis. Bleeding and adverse events through 48 hours were compared.
# All efficacy analyses were performed on the modified intent-to-treat population, defined as all randomized patients who received at least one dose of study drug and underwent the index PCI. All safety-related analyses were performed on the safety population, which included all patients who received at least one dose of assigned study drug. Patients in the safety analyses were assigned to a treatment arm based on treatment actually received, not as randomized. Intent-to-treat analyses are also presented for full disclosure of results. All statistical tests were two-tailed using a level of significance of 0.05. […] Logistic regression was also used to analyze the majority of the remaining secondary endpoints.
# P2Y12 receptor = target: T1, P2Y12 receptor (Homo sapiens, UniProt Q9H244); experiment: Example 2 substudy: platelet function by VerifyNow P2Y12 Assay; assay type: in vivo
# T1 construct: from tissue; host or cells: platelets in whole blood of patients
# Method: Platelet function parameters were measured using the VerifyNow® P2Y12 Assay (Accumetrics, San Diego, Calif.). Samples were taken before study drug administration, at approximately 2 hours (during cangrelor/placebo infusion), and 10 hours or next day following randomization.
# [3] = Study Day 1, 1.75 h, Ticagrelor at 0.5 hr
# [4] = Study Day 1, 1.75 h, Ticagrelor at 1.25 hr
# [5] = Study Day 1, 2.0 h, Ticagrelor at 0.5 hr
# [6] = Study Day 1, 2.0 h, Ticagrelor at 1.25 hr
# [7] = Study Day 1, reference 0.5/1.25 h, All
# [8] = Study Day 1, reference 0.5/1.25 h, Ticagrelor at 0.5 hr
# [9] = Study Day 1, reference 0.5/1.25 h, Ticagrelor at 1.25 hr
# [10] = Study Day 5, 1.0 h, Ticagrelor 6 doses
# [11] = Study Day 5, 1.0 h, Ticagrelor 7 doses
# [12] = Study Day 5, 2.0 h, Ticagrelor 6 doses
# [13] = Study Day 5, 2.0 h, Ticagrelor 7 doses
# [14] = 48-hour, safety population, cangrelor vs placebo
# T1 sequence (Q9H244 whole entry): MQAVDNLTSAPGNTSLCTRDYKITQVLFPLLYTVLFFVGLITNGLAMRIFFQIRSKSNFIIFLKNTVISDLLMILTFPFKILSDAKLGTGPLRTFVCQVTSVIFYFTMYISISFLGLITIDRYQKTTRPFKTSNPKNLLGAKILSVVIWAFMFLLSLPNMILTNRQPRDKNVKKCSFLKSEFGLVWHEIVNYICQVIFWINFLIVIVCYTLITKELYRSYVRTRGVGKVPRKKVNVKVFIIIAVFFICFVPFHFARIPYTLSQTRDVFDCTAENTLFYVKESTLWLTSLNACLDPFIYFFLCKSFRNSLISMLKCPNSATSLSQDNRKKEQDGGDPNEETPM
smiles,measurement,setting,value
"CSCCNc1nc(SCCC(F)(F)F)nc2c1ncn2[C@@H]1O[C@H](COP(=O)(O)OP(=O)(O)C(Cl)(Cl)P(=O)(O)O)[C@@H](O)[C@H]1O [Cangrelor, cangrelor]",platelet function returns to normal after drug termination,platelet function,30 to 60 min
same,plasma half-life,[1],3 to 5 min
same,"IPA, 5 μM ADP, LTA","platelets; Study Day 1, 1.75 h, All",92 ± 5%
same,"IPA, 20 μM ADP, LTA","platelets; Study Day 1, 1.75 h, All",97 ± 2%
same,"PR, 5 μM ADP, LTA","platelets; Study Day 1, 1.75 h, All",3.4 ± 2.2%
same,"PR, 20 μM ADP, LTA","platelets; Study Day 1, 1.75 h, All",2.2 ± 1.4%
same,"IPA, 5 μM ADP, LTA",platelets; [3],92 ± 5%
same,"IPA, 20 μM ADP, LTA",platelets; [3],97 ± 2%
same,"PR, 5 μM ADP, LTA",platelets; [3],4.2 ± 2.4%
same,"PR, 20 μM ADP, LTA",platelets; [3],2.3 ± 1.0%
same,"IPA, 5 μM ADP, LTA",platelets; [4],93 ± 6%
same,"IPA, 20 μM ADP, LTA",platelets; [4],97 ± 3%
same,"PR, 5 μM ADP, LTA",platelets; [4],2.7 ± 1.8%
same,"PR, 20 μM ADP, LTA",platelets; [4],2 ± 1.8%
same,"IPA, 5 μM ADP, LTA","platelets; Study Day 1, 2.0 h, All",92 ± 3%
same,"IPA, 20 μM ADP, LTA","platelets; Study Day 1, 2.0 h, All",97 ± 3%
same,"PR, 5 μM ADP, LTA","platelets; Study Day 1, 2.0 h, All",4.1 ± 2%
same,"PR, 20 μM ADP, LTA","platelets; Study Day 1, 2.0 h, All",2.3 ± 2.2%
same,"IPA, 5 μM ADP, LTA",platelets; [5],91 ± 3%
same,"IPA, 20 μM ADP, LTA",platelets; [5],95 ± 2%
same,"PR, 5 μM ADP, LTA",platelets; [5],4.8 ± 1.9%
same,"PR, 20 μM ADP, LTA",platelets; [5],3.5 ± 1.9%
same,"IPA, 5 μM ADP, LTA",platelets; [6],93 ± 3%
same,"IPA, 20 μM ADP, LTA",platelets; [6],98 ± 3%
same,"PR, 5 μM ADP, LTA",platelets; [6],3.3 ± 2%
same,"PR, 20 μM ADP, LTA",platelets; [6],1.2 ± 1.9%
same,"IPA, 5 μM ADP, LTA",platelets; [7],93 ± 3%
same,"IPA, 20 μM ADP, LTA",platelets; [7],98 ± 2%
same,"PR, 5 μM ADP, LTA",platelets; [7],3.6 ± 1.8%
same,"PR, 20 μM ADP, LTA",platelets; [7],1.7 ± 1.7%
same,"IPA, 5 μM ADP, LTA",platelets; [8],92 ± 4%
same,"IPA, 20 μM ADP, LTA",platelets; [8],97 ± 2%
same,"PR, 5 μM ADP, LTA",platelets; [8],4.2 ± 2.1%
same,"PR, 20 μM ADP, LTA",platelets; [8],2 ± 1.5%
same,"IPA, 5 μM ADP, LTA",platelets; [9],93 ± 2%
same,"IPA, 20 μM ADP, LTA",platelets; [9],98 ± 3%
same,"PR, 5 μM ADP, LTA",platelets; [9],3 ± 1.4%
same,"PR, 20 μM ADP, LTA",platelets; [9],1.3 ± 2.0%
same,"IPA, 5 μM ADP, LTA","platelets; Study Day 5, 1.0 h, All",96 ± 3%
same,"IPA, 20 μM ADP, LTA","platelets; Study Day 5, 1.0 h, All",98 ± 2%
same,"PR, 5 μM ADP, LTA","platelets; Study Day 5, 1.0 h, All",2.1 ± 1.7%
same,"PR, 20 μM ADP, LTA","platelets; Study Day 5, 1.0 h, All",1.5 ± 1.5%
same,"IPA, 5 μM ADP, LTA",platelets; [10],96 ± 4%
same,"IPA, 20 μM ADP, LTA",platelets; [10],98 ± 2%
same,"PR, 5 μM ADP, LTA",platelets; [10],1.5 ± 1.6%
same,"PR, 20 μM ADP, LTA",platelets; [10],1.5 ± 1.6%
same,"IPA, 5 μM ADP, LTA",platelets; [11],96 ± 3%
same,"IPA, 20 μM ADP, LTA",platelets; [11],98 ± 2%
same,"PR, 5 μM ADP, LTA",platelets; [11],2.7 ± 1.6%
same,"PR, 20 μM ADP, LTA",platelets; [11],1.5 ± 1.5%
same,"IPA, 5 μM ADP, LTA","platelets; Study Day 5, 2.0 h, All",96 ± 4%
same,"IPA, 20 μM ADP, LTA","platelets; Study Day 5, 2.0 h, All",98 ± 2%
same,"PR, 5 μM ADP, LTA","platelets; Study Day 5, 2.0 h, All",2.2 ± 2.2%
same,"PR, 20 μM ADP, LTA","platelets; Study Day 5, 2.0 h, All",1.3 ± 1.6%
same,"IPA, 5 μM ADP, LTA",platelets; [12],97 ± 3%
same,"IPA, 20 μM ADP, LTA",platelets; [12],98 ± 1%
same,"PR, 5 μM ADP, LTA",platelets; [12],1.5 ± 1.5%
same,"PR, 20 μM ADP, LTA",platelets; [12],1.2 ± 1.5%
same,"IPA, 5 μM ADP, LTA",platelets; [13],95 ± 5%
same,"IPA, 20 μM ADP, LTA",platelets; [13],98 ± 3%
same,"PR, 5 μM ADP, LTA",platelets; [13],2.8 ± 2.7%
same,"PR, 20 μM ADP, LTA",platelets; [13],1.5 ± 1.9%
same,"residual reactivity, maximal","platelets; combined overall population, 0.5 h after cangrelor was stopped, ticagrelor loaded during infusion",19%
same,residual reactivity,"platelets; combined overall population, end of observation period (5.25 h)",< 5%
same,Thrombocytopenia,"[2]; 48-hour, safety population",2 (0.1) no. (%)
same,Odds Ratio (95% CI): ACUITY criteria Major bleeding,[2]; [14],"1.607 (1.232, 2.096)"
same,Odds Ratio (95% CI): ACUITY criteria Minor bleeding,[2]; [14],"1.335 (1.120, 1.592)"
same,Odds Ratio (95% CI): Access site bleeding requiring radiologic or surgical intervention,[2]; [14],"0.796 (0.314, 2.019)"
same,Odds Ratio (95% CI): GUSTO criteria Moderate bleeding,[2]; [14],"1.536 (0.762, 3.093)"
same,Odds Ratio (95% CI): GUSTO criteria Severe/life-threatening bleeding,[2]; [14],"1.495 (0.531, 4.205)"
same,Odds Ratio (95% CI): Hematoma <5 cm at puncture site,[2]; [14],"1.270 (0.992, 1.626)"
same,Odds Ratio (95% CI): Hematoma ≧5 cm at puncture site,[2]; [14],"1.640 (1.214, 2.216)"
same,Odds Ratio (95% CI): Hemodynamic compromise,[2]; [14],"1.395 (0.442, 4.400)"
same,Odds Ratio (95% CI): Intracranial hemorrhage,[2]; [14],"1.992 (0.180, 21.978)"
same,Odds Ratio (95% CI): Oozing at puncture site,[2]; [14],"1.385 (1.052, 1.825)"
same,rates of red blood cell transfusion,[2]; 48 hours,0.9%
same,incidence of dyspnea,"[2]; human, in vivo, 48 h",1.4%
same,rate of arrhythmia,"[2]; human, in vivo, 48 h",2.3%
same,median PRU (VerifyNow P2Y12 assay),P2Y12 receptor; 12-24 hours after discontinuation of the cangrelor infusion,228 PRU
same,median PRU (VerifyNow P2Y12 assay),P2Y12 receptor; during the study drug infusion (approx. 2 hours),93.5 PRU
